Results from patent US20220348590A1, “CYCLOOXYGENASE-2 INHIBITORS AND USES THEREOF” (The Board Institute, Inc., priority 2019, published 2022).
Like-named read-outs stand apart in the source and are kept apart here.

Key:
ovine COX-1 (oCOX-1) = biological target: T1, ovine COX-1 (oCOX-1) (Ovis aries, UniProt P05979); assay: LCMS-based COX-1 enzymatic inhibition assay (PGE2 quantification); assay type: biochemical
T1 construct: purchased Cayman Chemicals (Ann Arbor, Mich.)
T1 sequence (P05979 25-600): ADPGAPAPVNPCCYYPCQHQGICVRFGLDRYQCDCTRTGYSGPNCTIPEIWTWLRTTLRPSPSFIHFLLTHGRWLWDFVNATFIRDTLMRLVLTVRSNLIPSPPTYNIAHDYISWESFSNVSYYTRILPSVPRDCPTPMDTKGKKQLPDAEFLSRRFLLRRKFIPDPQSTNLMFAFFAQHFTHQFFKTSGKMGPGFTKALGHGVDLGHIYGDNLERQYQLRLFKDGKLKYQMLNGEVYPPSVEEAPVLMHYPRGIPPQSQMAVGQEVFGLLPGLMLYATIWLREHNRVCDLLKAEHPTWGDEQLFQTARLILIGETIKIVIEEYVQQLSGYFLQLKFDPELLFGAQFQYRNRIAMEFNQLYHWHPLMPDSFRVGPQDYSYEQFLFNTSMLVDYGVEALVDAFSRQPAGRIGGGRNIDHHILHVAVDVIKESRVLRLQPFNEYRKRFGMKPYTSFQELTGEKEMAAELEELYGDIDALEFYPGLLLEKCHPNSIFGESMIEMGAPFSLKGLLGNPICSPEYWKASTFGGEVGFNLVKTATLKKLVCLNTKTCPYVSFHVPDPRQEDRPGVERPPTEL
Method: We have adapted a previously reported cyclooxygenase enzymatic assay utilizing LCMS quantification of PGE2 as the product of COX-1 and COX2 catalyzed conversion of arachidonic acid to evaluate the binding properties of newly synthesized ligands [Cao, 2011]. These optimized and miniaturized (384-well plates) LCMS-based COX-1 and COX2 enzymatic assays enabled us to quickly evaluate newly synthesized ligands for COX2 binding affinity and selectivity vs COX-1. Using a shorter ligand-enzyme incubation time in the LCMS assay (2 minutes vs 10 minutes) also permitted us to prioritize ligands with faster binding kinetics. Considering the relatively slow on-rate kinetics of known coxibs, due to their 3-step binding mechanism [Marnett, 2009], we believe that optimizing this critical parameter will be key to the successful development of a COX2 PET tracer. Using these enzymatic assays, we have evaluated>200 newly synthesized ligands against COX2 and >20 ligands against COX-1. Another critical property necessary for a good PET radiotracer is to have low non-specific binding (NSB) to increase the free fraction and maximize the signal to noise ratio. This property can be evaluated using in-vitro protein binding assays, and we have now evaluated>50 newly synthesized ligands in mouse, rat and human plasma protein binding (PPB) assays as well as >15 ligands in a mouse brain protein binding (BPB) assay.
Ovine COX-1 (oCOX-1), ovine COX2 (oCOX2), human recombinant COX2 (hCOX2), arachidonic acid, PGE2, d4-PGD2, and […] (labeled with deuterium atoms at positions 3 and 4) were purchased from Cayman Chemicals (Ann Arbor, Mich.). The cofactors (−)epinephrine and hematin, and the COX inhibitors indomethacin, resveratrol and diclofenac were purchased from Sigma-Aldrich (St. Louis, Mo.). Celecoxib was purchased from 3B PharmaChem International (Wuhan, China). All organic solvents were HPLC grade or better and were purchased from Thermo Fisher (Hanover Park, Ill.). Formic acid was purchased from EMD Chemicals (San Diego, Calif.). Purified water was prepared by using a Millipore Milli-Q purification system (Millipore, Billerica, Mass.). All other chemicals and solvents were ACS reagent grade, unless stated otherwise.
In an Eppendorf tube, 146 μL of 100 mM Tris.HCl (pH 8.0) buffer, 2 μL of 100 μM hematin (co-factor) and 10 μL of 40 mM L-epinephrine (co-factor) were mixed at room temperature. Next, 20 μL of Tris.HCl (pH 8.0) buffer containing 0.2 μg COX2 or 0.1 μg COX-1 (approximately 1 unit of enzyme; 1 unit COX utilizes 1 nmol 02/mg/min at 37° C.) was added, and the solution was incubated at room temperature for 2 min. A 2 μL aliquot of the COX inhibitor in DMSO was added to the enzyme solution and preincubated at 37° C. for 10 min. Negative controls were identical except that 2 μL aliquots of DMSO without inhibitor were used instead.
Each COX reaction was initiated by adding 20 μL of arachidonic acid in Tris.HCl (pH 8.0) buffer to give a final concentration of 5 μM; and the reaction was terminated after 2 min by adding 20 μL of 2.0 M HCl. The surrogate standards d4-PGE2 and d4-PGD2 (10 μL aliquot of 50 ng/mL solution in methanol) were added to correct for errors or degradation during sample handling and for variation in injection volume or instrument response during LC-MS-MS. After 30 min, PGE2, PGD2 and their surrogate standards were extracted from each incubation mixture using 800 μL hexane/ethyl acetate (50:50, v/v). The organic phase was removed, evaporated to dryness, and reconstituted in 100 μL methanol/water (50:50, v/v) for analysis using LC-MS-MS.
The concentration of PGE2 in each sample was measured using LC-MS-MS, and the percent of COX inhibition by each test solution was determined by comparing the amount of PGE2 produced in the experiment with that produced in the negative control incubation. The formation of PGD2 was measured for quality control purposes, since the levels of PGD2 should be proportional to those of PGE2. […]

[1] = biological target: T2, human recombinant COX2 (hCOX2) (UniProt P35354); assay: LCMS-based COX2 enzymatic inhibition assay (PGE2 quantification); assay type: biochemical; parameters: COX2 2 minutes pge2/pge2d4 area ratio Avg; other: 2 minutes; readout pge2/pge2d4 area ratio; average; COX2 2 minutes pge2/pge2d4 area ratio Avg; LLE; average LLE; COX2 2 minutes pge2 area (counts) Avg; readout pge2 area (counts); other: 2 min; "ovine COX2 (oCOX2), human recombinant COX2 (hCOX2)"; conditions: for IC50: average
T2 sequence (P35354 1-604): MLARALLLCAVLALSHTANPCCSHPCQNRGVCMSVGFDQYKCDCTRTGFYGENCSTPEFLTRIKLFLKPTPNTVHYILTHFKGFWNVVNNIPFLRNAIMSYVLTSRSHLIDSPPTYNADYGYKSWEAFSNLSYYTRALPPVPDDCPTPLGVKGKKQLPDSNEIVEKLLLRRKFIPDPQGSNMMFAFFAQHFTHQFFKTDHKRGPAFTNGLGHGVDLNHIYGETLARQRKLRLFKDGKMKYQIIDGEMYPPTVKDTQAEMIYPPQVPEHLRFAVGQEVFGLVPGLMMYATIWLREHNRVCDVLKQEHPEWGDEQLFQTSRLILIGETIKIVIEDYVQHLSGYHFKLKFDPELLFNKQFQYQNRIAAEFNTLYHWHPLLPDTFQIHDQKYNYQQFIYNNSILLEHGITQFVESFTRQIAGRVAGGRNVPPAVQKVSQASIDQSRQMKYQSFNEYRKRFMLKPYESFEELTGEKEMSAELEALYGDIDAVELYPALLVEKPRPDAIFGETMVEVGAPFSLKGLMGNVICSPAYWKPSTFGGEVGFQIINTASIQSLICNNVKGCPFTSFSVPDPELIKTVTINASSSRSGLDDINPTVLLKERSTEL
In short: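 Ovine COX-1 (0.1 μg) or human recombinant COX2 (0.2 μg) in 100 mM Tris.HCl pH 8.0 with hematin and epinephrine, preincubated with inhibitor 10 min at 37 °C. Reaction with 5 μM arachidonic acid stopped after 2 min with HCl; PGE2 quantified by LC-MS-MS. IC50 from 12 concentrations in triplicate.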

[2] = 10 minutes, readout pge2/pge2d4 area ratio, average LLE
[3] = 10 minutes, readout pge2/pge2d4 area ratio, average, read-out: COX1 10 minutes pge2/pge2d4 area ratio Avg. IC50
[4] = 10 minutes, readout pge2 area (counts), average LLE
[5] = 10 minutes, readout pge2 area (counts), average, read-out: COX1 10 minutes pge2 area (counts) Avg. IC50
[6] = 2 minutes, readout pge2/pge2d4 area ratio, average LLE
[7] = 2 minutes, readout pge2/pge2d4 area ratio, read-out: COX2 2 minutes pge2/pge2d4 area ratio Avg. IC50
[8] = 2 minutes, readout pge2 area (counts), average LLE
[9] = 2 minutes, readout pge2 area (counts), read-out: COX2 2 minutes pge2 area (counts) Avg. IC50
[10] = 10 minutes, pge2/pge2d4 area ratio, head of this section not shown, inferred
[11] = 10 minutes, pge2 area (counts), head of this section not shown, inferred
[12] = 10 minutes, pge2 area (counts), head of this section not shown, inferred, read-out: COX1 10 minutes pge2 area (counts) Avg. IC50

Row | SMILES | COX1 10 minutes pge2/pge2d4 area ratio Avg. LLE (ovine COX-1 (oCOX-1); [2]) | IC50 (ovine COX-1 (oCOX-1); [3]) [nM] | COX1 10 minutes pge2 area (counts) Avg. LLE (ovine COX-1 (oCOX-1); [4]) | IC50 (ovine COX-1 (oCOX-1); [5]) [nM] | COX2 2 minutes pge2/pge2d4 area ratio Avg. LLE [1, 6] | IC50 [1, 7] [nM] | COX2 2 minutes pge2 area (counts) Avg. LLE [1, 8] | IC50 [1, 9] [nM] | COX2 10 minutes pge2 area (counts) Avg. LLE [1, 4] | IC50 ([1]; 10 minutes, readout pge2 area (counts), read-out: COX2 10 minutes pge2 area (counts) Avg. IC50) [nM] | COX1 10 minutes pge2/pge2d4 area ratio Avg. LLE (ovine COX-1 (oCOX-1); [10]) | COX1 10 minutes pge2 area (counts) Avg. LLE (ovine COX-1 (oCOX-1); [11]) | IC50 (ovine COX-1 (oCOX-1); [12]) [nM] | IC50 (ovine COX-1 (oCOX-1)) [nM]
1 | COc1cc(-c2ccc(S(C)(=O)=O)cc2)cc(NCc2cccs2)n1 [Compound 54] | 0.5171 | 39200 | 0.394 | 52000 | 3.727 | 25.5 | 3.7767 | 23.8 | 4.182 | 9.43 |  |  |  | 
2 | CS(=O)(=O)c1ccc(-n2ccc3ccc(Nc4ccccc4)nc32)cc1 [Compound 72] |  | 17600 |  |  | 2.94 | 41.4 | 2.995 | 34.2 |  |  | 0.2541 | 0.02014 | 30200 | 
3 | CS(=O)(=O)c1ccc(-c2cc(F)cc(OCc3cccs3)n2)cc1 [Compound 6] | 1.694 | 2860 | 1.673 | 3000 | 4.364 | 6.26 | 4.247 | 8.2 |  |  |  |  |  | 
4 | Cc1ncc(-c2ccc(S(C)(=O)=O)cc2)nc1OCc1cccs1 [Compound 38] | 3.526 | 699 | 3.306 | 1230 | 5.142 | 18.4 | 5.088 | 20.6 |  |  |  |  |  | 
5 | CS(=O)(=O)c1ccc(-c2cc3ccoc3c(NCc3cccs3)n2)cc1 [Compound 67] |  | 19600 |  |  | 3.0886 | 38.9 | 3.016 | 45.2 |  |  | 0.3787 | 0.343 | 21200 | 
6 | CS(=O)(=O)c1ccc(-c2cccc(NCc3cccs3)c2)cc1 [Compound 42] | 0.01187 | 36200 | −0.01745 | 38700 | 3.551 | 19.5 | 3.78 | 6.71 |  |  |  |  |  | 
7 | CS(=O)(=O)c1ccc(-c2ccc3cnn(Cc4cccs4)c3n2)cc1 [Compound 63] |  | 1990 |  |  | 3.897 | 35.1 | 3.961 | 27.1 |  |  | 2.0906 | 2.128 | 1830 | 
8 | CS(=O)(=O)c1ccc(-n2ccc3ccc(NCc4ccoc4)nc32)cc1 [Compound 83] |  |  |  |  | 3.241 | 57.9 | 3.278 | 53.5 |  |  | 0.284 |  |  | 52000
